According to publication PMC9713320, “Study of the anticancer effect of new quinazolinone hydrazine derivatives as receptor tyrosine kinase inhibitors” (Frontiers in Chemistry, 2022):

Experiments:
A549 = assay: cells; set-up: MTT antiproliferative assay, absorbance at 570 nm, monolayer cancer cells; conditions: Homo sapiens, 72 h, MTT, read-out: IC50 (µM) / Mean ± SEM / A549
Text: (§1) MTT (3-(4,5-dimethylthiazol-2-yl)-2,5-diphenyltetrazolium bromide) assay was applied to evaluate the antiproliferative effects of synthetic compounds against cancer and normal cell lines as previously described ([Damghani et al., 2021]). The MTT assay is based on the reduction function of NAD(P)H-dependent cellular oxidoreductase enzymes on yellow tetrazolium dye MTT to its insoluble formazan, which has a purple color and reflects the number of viable cells. Cancer and non-cancer cells were seeded in 96-well flat bottom plates at different densities of 1.5 × 10^4 (HT-29), 3 × 10^4 (A549 and U-87MG), 4 × 10^4 (EBC-1). Synthetic compounds were first dissolved in DMSO and then diluted in growth medium. After 24 h the attached cells were exposed to 100 µL of 3-4 different concentrations of synthesized derivatives in triplicate manner and incubated for an additional 72 h at 37°C. In addition, 3–4 different concentrations of reference compounds were added to wells. To perform the MTT assay the media was discarded from each well and MTT solution in phosphate-buffered saline at a concentration of 0.5 mg/ml was added to all wells. Then, plates were incubated at 37°C for 4 h to allow formation of formazan crystals. Afterwards, crystals were dissolved in 200 μL DMSO, shake on an orbital shaker for 30 min and absorbance was measured at a wavelength of 570 nm with background correction at 650 nm using a Bio-Tek microplate reader (Model Synergy HTX). Finally, IC50 values for each compound was calculated with CurveExpert software version 1.4 for windows. Each experiment was repeated 3–5 times. EBC-1 (human lung adenocarcinoma cells) were obtained from Japanese Collection of Research Bio Resources Cell Bank (JCRB). A549 (human lung adenocarcinoma cells), HT-29 (Human colorectal adenocarcinoma cells) and U-87MG (human primary glioblastoma cells) were obtained from Iranian Biological Resource Centre, Tehran, Iran. EBC-1 cells were cultured in RPMI 1640 medium containing 10% heat-inactivated fetal bovine serum (FBS) and 1% penicillin/streptomycin. A549, HT-29 and U-87MG cells were grown in DMEM low glucose, containing 10% heat-inactivated FBS and 1% penicillin/streptomycin. All cells were grown in monolayer culture at 37°C in a humidified incubator with 5% CO2. We employed the MTT assay in order to investigate the antiproliferative effects of the synthetic compounds against four different cancer cell lines, including lung cancer cell lines EBC-1 (with MET amplification) and A549, the human colorectal cancer cells HT-29, as well as the human glioblastoma cell line U-87MG.

HT-29 = assay: cells; set-up: MTT antiproliferative assay, absorbance at 570 nm, monolayer cancer cells; conditions: Homo sapiens, 72 h, MTT, read-out: IC50 (µM) / Mean ± SEM / HT29
Text: as §1

EBC-1 = assay: cells; set-up: MTT antiproliferative assay, absorbance at 570 nm, monolayer cancer cells; conditions: Homo sapiens, 72 h, MTT, read-out: IC50 (µM) / Mean ± SEM / EBC-1
Text: as §1

U-87MG = assay: cells; set-up: MTT antiproliferative assay, absorbance at 570 nm, monolayer cancer cells; conditions: Homo sapiens, 72 h, MTT, read-out: IC50 (µM) / Mean ± SEM / U-87MG
Text: as §1

FLT4 (VEGFR3) = FLT4 (VEGFR3) (Homo sapiens, UniProt P35916); assay: radiometric kinase assay (Eurofins), concentration-effect curve; assay type: biochemical
AXL = AXL (Homo sapiens, UniProt P30530); assay: radiometric kinase panel, % inhibition at […]; assay type: biochemical
MET kinase = MET kinase (Homo sapiens, UniProt P08581); assay: HTRF kinase assay; confirmed by radiometric assay; assay type: biochemical
FGFR1 = FGFR1 (Homo sapiens, UniProt P11362); assay: radiometric kinase panel, % inhibition at […]; assay type: biochemical
14) PDGFRA (PDGFRα) (h) = 14) PDGFRA (PDGFRα) (h) (Homo sapiens, UniProt P16234); assay: biochemical; set-up: Radiometric kinase activity assay, percent inhibition, Eurofins Cerep; conditions: read-out: Kinase inhibition (%) ^a / 10 µM / −4
Experimental: (§2) Kinase inhibition profile was examined by Kinase Radiometric Assays for 18 different oncogenic kinases (Eurofins Cerep, Celle l'Evescault, France). In order to investigate the activity of compound CM9, as the most promising agent in this series, against other oncogenic kinases, we further assessed this derivative against a panel of 18 other protein kinases using a radiometric assay at the concentrations of 10 and/or 25 μM (Table 4).

9) FLT4 (VEGFR3) = 9) FLT4 (VEGFR3) (Homo sapiens, UniProt P35916); assay: biochemical; set-up: Radiometric kinase activity assay, percent inhibition, Eurofins Cerep; conditions: read-out: Kinase inhibition (%) ^a / 10 µM
Experimental: as §2

8) FLT3 (h) = 8) FLT3 (h) (Homo sapiens, UniProt P36888); assay: biochemical; set-up: Radiometric kinase activity assay, percent inhibition, Eurofins Cerep
Chain of 8) FLT3 (h) (P36888 whole entry): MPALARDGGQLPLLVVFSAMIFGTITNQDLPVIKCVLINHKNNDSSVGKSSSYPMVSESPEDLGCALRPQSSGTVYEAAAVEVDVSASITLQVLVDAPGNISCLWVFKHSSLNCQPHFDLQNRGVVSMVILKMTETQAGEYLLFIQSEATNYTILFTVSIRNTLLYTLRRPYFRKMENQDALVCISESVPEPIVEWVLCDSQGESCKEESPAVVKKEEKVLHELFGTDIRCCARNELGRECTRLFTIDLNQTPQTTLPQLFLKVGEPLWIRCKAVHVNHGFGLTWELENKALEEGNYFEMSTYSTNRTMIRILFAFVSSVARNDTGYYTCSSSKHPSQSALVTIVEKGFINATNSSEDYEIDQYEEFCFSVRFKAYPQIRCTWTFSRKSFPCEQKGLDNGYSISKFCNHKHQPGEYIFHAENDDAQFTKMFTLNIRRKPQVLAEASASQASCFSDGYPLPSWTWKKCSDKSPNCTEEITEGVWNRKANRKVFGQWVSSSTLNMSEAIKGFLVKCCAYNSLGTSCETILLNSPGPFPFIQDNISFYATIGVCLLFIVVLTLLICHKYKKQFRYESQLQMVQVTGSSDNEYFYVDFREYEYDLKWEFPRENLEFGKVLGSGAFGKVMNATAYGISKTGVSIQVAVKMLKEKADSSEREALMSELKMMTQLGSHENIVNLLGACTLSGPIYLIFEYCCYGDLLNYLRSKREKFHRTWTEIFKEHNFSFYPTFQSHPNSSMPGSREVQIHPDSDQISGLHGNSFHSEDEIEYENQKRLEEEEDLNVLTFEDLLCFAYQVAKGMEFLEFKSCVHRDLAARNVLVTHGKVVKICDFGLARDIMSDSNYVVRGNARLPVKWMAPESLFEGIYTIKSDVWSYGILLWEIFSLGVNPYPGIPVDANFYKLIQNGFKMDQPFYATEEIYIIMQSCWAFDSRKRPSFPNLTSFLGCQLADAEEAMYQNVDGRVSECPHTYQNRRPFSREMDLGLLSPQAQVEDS
Experimental: as §2

16) RET(h) = 16) RET(h) (Homo sapiens, UniProt P07949); assay: biochemical; set-up: Radiometric kinase activity assay, percent inhibition, Eurofins Cerep; conditions: read-out: Kinase inhibition (%) ^a / 10 µM / −4
Experimental: as §2

10) KDR (VEGFR2) (h) = 10) KDR (VEGFR2) (h) (Homo sapiens, UniProt P35968); assay: biochemical; set-up: Radiometric kinase activity assay, percent inhibition, Eurofins Cerep; conditions: read-out: Kinase inhibition (%) ^a / 10 µM
Experimental: as §2

17) MST1R (RON) (h) = 17) MST1R (RON) (h) (Homo sapiens, UniProt Q04912); assay: biochemical; set-up: Radiometric kinase activity assay, percent inhibition, Eurofins Cerep; conditions: read-out: Kinase inhibition (%) ^a / 10 µM / −4
Experimental: as §2

19) NTRK1 (TRKA) (h) = 19) NTRK1 (TRKA) (h) (Homo sapiens, UniProt P04629); assay: biochemical; set-up: Radiometric kinase activity assay, percent inhibition, Eurofins Cerep; conditions: read-out: Kinase inhibition (%) ^a / 10 µM / −4
Experimental: as §2

1) ABL1(h) = 1) ABL1(h) (Homo sapiens, UniProt P00519); assay: biochemical; set-up: Radiometric kinase activity assay, percent inhibition, Eurofins Cerep; conditions: read-out: Kinase inhibition (%) ^a / 10 µM
Experimental: as §2

13) MET(h) = 13) MET(h) (Homo sapiens, UniProt P08581); assay: biochemical; set-up: Radiometric kinase activity assay, percent inhibition, Eurofins Cerep
Chain of 13) MET(h) (P08581 whole entry): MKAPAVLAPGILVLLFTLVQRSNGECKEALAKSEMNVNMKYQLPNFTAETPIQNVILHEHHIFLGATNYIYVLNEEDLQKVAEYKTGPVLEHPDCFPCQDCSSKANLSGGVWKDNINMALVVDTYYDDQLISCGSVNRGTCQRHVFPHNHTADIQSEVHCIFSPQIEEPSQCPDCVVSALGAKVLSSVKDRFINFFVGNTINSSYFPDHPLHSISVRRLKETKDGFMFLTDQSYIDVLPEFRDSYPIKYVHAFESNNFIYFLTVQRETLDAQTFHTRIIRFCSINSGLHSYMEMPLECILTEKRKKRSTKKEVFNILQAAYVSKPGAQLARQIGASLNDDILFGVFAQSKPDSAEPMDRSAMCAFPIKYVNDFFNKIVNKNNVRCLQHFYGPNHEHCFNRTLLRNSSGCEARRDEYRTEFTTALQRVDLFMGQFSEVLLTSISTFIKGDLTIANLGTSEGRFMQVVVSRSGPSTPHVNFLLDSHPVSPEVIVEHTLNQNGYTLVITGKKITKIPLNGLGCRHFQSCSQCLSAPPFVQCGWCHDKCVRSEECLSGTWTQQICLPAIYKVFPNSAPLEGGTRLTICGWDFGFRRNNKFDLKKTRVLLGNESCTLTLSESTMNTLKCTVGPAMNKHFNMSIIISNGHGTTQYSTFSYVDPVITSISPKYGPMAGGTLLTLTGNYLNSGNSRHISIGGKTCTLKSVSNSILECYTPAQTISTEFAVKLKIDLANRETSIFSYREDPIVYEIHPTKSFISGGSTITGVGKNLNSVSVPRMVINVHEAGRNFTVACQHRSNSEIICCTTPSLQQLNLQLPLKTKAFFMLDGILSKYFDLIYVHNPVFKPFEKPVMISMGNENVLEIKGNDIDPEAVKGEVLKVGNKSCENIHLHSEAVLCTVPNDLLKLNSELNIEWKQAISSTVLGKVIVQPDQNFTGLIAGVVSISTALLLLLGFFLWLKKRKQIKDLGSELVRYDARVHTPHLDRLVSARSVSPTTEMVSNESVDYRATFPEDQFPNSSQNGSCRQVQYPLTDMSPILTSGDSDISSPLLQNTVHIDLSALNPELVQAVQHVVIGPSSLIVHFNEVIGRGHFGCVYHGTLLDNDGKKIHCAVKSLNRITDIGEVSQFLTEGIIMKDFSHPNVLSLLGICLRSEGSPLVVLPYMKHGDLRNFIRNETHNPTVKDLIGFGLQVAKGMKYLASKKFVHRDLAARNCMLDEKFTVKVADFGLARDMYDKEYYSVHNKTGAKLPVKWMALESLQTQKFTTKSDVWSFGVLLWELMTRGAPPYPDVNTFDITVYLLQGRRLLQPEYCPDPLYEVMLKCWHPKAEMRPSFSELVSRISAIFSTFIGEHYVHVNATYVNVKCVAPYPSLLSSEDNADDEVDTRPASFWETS
Experimental: as §2

6) FGFR1(h) = 6) FGFR1(h) (Homo sapiens, UniProt P11362); assay: biochemical; set-up: Radiometric kinase activity assay, percent inhibition, Eurofins Cerep; conditions: read-out: Kinase inhibition (%) ^a / 10 µM
Experimental: as §2

7) FLT1 (VEGFR1) (h) = 7) FLT1 (VEGFR1) (h) (Homo sapiens, UniProt P17948); assay: biochemical; set-up: Radiometric kinase activity assay, percent inhibition, Eurofins Cerep; conditions: read-out: Kinase inhibition (%) ^a / 10 µM
Experimental: as §2

3) AXL(h) = 3) AXL(h) (Homo sapiens, UniProt P30530); assay: biochemical; set-up: Radiometric kinase activity assay, percent inhibition, Eurofins Cerep; conditions: read-out: Kinase inhibition (%) ^a / 10 µM
Experimental: as §2

18) ROS1 = 18) ROS1 (Homo sapiens, UniProt P08922); assay: biochemical; set-up: Radiometric kinase activity assay, percent inhibition, Eurofins Cerep; conditions: read-out: Kinase inhibition (%) ^a / 10 µM / −4
Experimental: as §2

2) ALK(h) = 2) ALK(h) (Homo sapiens, UniProt Q9UM73); assay: biochemical; set-up: Radiometric kinase activity assay, percent inhibition, Eurofins Cerep; conditions: read-out: Kinase inhibition (%) ^a / 10 µM
Experimental: as §2

11) MAPK3 (ERK1) (h) = 11) MAPK3 (ERK1) (h) (Homo sapiens, UniProt P27361); assay: biochemical; set-up: Radiometric kinase activity assay, percent inhibition, Eurofins Cerep; conditions: read-out: Kinase inhibition (%) ^a / 10 µM
Experimental: as §2

MAPK1(m) (ERK2) = MAPK1(m) (ERK2) (Mus musculus, UniProt P63085); assay: biochemical; set-up: Radiometric kinase activity assay, percent inhibition, Eurofins Cerep; conditions: read-out: Kinase inhibition (%) ^a / 10 µM / −4
Experimental: as §2

15) PDGFRB (PDGFRβ) (h) = 15) PDGFRB (PDGFRβ) (h) (Homo sapiens, UniProt P09619); assay: biochemical; set-up: Radiometric kinase activity assay, percent inhibition, Eurofins Cerep
Chain of 15) PDGFRB (PDGFRβ) (h) (P09619 whole entry): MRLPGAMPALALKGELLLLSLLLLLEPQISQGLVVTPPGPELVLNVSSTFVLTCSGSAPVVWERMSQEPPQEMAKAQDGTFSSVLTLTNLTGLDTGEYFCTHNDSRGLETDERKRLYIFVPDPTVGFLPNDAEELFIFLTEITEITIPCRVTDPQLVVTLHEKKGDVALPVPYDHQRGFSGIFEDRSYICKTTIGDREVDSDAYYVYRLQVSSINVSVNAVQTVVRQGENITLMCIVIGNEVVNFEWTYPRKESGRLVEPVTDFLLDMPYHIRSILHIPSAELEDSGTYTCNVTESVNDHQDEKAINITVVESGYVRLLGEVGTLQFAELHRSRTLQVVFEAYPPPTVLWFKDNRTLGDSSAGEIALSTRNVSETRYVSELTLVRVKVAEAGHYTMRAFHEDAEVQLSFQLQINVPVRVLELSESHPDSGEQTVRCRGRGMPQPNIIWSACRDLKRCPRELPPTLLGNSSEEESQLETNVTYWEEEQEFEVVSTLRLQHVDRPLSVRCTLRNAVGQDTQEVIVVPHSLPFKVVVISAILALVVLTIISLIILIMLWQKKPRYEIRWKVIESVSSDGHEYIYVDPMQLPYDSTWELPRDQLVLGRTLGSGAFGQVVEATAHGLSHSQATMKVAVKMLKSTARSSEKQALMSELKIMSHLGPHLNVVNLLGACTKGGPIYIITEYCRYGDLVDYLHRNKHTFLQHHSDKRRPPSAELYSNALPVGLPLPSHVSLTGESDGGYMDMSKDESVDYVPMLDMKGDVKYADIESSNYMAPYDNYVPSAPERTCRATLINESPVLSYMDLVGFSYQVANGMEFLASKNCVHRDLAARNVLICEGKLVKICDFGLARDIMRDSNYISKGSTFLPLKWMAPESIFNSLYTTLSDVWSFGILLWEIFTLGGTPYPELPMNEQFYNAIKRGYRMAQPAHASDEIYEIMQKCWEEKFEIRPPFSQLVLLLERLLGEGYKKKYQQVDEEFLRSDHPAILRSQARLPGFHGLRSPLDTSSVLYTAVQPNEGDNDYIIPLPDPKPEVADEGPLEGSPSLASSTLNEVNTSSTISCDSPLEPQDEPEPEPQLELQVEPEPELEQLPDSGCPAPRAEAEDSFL
Experimental: as §2

4) KIT (c-Kit) (h) = 4) KIT (c-Kit) (h) (Homo sapiens, UniProt P10721); assay: biochemical; set-up: Radiometric kinase activity assay, percent inhibition, Eurofins Cerep; conditions: read-out: Kinase inhibition (%) ^a / 10 µM
Experimental: as §2

5) EGFR(h) = 5) EGFR(h) (Homo sapiens, UniProt P00533); assay: biochemical; set-up: Radiometric kinase activity assay, percent inhibition, Eurofins Cerep; conditions: read-out: Kinase inhibition (%) ^a / 10 µM
Experimental: as §2

FLT1 (VEGFR1) = FLT1 (VEGFR1) (Homo sapiens, UniProt P17948); assay: radiometric kinase panel, % inhibition at […]; assay type: biochemical
ALK = ALK (Homo sapiens, UniProt Q9UM73); assay: radiometric kinase panel, % inhibition at […]; assay type: biochemical
Chain of ALK (Q9UM73 19-1620): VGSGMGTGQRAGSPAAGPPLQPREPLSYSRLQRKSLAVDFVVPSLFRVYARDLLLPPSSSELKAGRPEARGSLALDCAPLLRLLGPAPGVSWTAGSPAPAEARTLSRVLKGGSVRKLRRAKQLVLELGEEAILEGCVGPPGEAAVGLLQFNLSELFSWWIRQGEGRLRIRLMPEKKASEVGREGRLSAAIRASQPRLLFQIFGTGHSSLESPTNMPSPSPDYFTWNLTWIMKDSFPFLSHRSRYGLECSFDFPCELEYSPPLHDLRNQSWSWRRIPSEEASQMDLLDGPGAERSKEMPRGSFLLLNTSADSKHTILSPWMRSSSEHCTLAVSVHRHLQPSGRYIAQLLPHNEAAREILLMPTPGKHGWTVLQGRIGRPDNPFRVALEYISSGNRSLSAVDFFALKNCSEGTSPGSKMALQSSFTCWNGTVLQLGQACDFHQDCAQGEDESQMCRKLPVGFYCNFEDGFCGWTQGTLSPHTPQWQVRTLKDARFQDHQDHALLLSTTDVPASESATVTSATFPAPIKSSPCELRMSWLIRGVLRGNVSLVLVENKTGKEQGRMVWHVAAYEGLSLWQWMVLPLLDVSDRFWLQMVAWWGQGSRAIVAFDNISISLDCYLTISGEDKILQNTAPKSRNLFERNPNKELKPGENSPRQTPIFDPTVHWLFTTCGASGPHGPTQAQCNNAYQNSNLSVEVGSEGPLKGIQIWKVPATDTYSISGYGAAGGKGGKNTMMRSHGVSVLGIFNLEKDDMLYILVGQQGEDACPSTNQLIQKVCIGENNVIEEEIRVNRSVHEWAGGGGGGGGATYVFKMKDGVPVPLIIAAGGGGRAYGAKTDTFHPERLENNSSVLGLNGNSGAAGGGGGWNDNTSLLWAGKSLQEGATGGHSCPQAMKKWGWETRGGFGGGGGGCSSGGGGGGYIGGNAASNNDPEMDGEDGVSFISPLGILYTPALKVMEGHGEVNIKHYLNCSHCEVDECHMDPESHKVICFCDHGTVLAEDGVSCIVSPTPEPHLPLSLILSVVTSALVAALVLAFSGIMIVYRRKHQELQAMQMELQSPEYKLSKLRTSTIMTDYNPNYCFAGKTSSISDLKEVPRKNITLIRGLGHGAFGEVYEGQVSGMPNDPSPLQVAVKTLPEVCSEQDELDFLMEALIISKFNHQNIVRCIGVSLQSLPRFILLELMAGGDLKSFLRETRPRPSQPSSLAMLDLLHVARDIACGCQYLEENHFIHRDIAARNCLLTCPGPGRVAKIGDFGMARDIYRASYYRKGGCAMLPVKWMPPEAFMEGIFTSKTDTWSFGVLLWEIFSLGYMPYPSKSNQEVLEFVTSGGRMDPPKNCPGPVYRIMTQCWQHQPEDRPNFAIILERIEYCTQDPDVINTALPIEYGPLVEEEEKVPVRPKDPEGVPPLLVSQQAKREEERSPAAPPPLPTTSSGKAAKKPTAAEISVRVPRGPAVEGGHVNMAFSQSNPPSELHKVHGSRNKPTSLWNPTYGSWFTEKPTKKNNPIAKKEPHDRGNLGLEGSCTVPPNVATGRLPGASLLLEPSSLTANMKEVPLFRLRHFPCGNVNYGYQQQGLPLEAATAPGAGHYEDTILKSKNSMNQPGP

[1] = read-out: Kinase inhibition (%) ^a / 25 µM
[2] = read-out: Kinase inhibition (%) ^a / 10 µM / −4

SMILES: Cn1c(N/N=C/c2ccc(OCc3cn(Cc4ccc([N+](=O)[O-])cc4)nn3)cc2)nc2ccccc2c1=O [CM1]
- IC50 (A549): > 100 µM
- IC50 (HT-29): > 100 µM
- IC50 (EBC-1): > 100 µM
- IC50 (U-87MG): > 100 µM

SMILES: Cc1ccc(Cn2cc(COc3ccc(/C=N/Nc4nc5ccccc5c(=O)n4C)cc3)nn2)cc1 [CM2]
- IC50 (A549): > 100 µM
- IC50 (HT-29): > 100 µM
- IC50 (EBC-1): > 100 µM
- IC50 (U-87MG): > 100 µM

SMILES: Cn1c(N/N=C/c2ccc(OCc3cn(Cc4ccc(C(C)(C)C)cc4)nn3)cc2)nc2ccccc2c1=O [CM3]
- IC50 (A549): > 100 µM
- IC50 (HT-29): 56.4 ± 14.5 µM
- IC50 (EBC-1): > 100 µM
- IC50 (U-87MG): > 100 µM

SMILES: Cn1c(N/N=C/c2ccc(OCc3cn(Cc4ccc(F)cc4)nn3)cc2)nc2ccccc2c1=O [CM4]
- IC50 (A549): > 100 µM
- IC50 (HT-29): 27.8 ± 5.1 µM
- IC50 (EBC-1): 36.2 ± 10.8 µM
- IC50 (U-87MG): 67.1 ± 6.2 µM

SMILES: Cn1c(N/N=C/c2ccc(OCc3cn(Cc4ccc(Cl)cc4)nn3)cc2)nc2ccccc2c1=O [CM5]
- IC50 (A549): > 100 µM
- IC50 (HT-29): > 100 µM
- IC50 (EBC-1): > 100 µM
- IC50 (U-87MG): > 100 µM

SMILES: Cn1c(N/N=C/c2ccc(OCc3cn(Cc4ccccc4)nn3)cc2)nc2ccccc2c1=O [CM6]
- IC50 (A549): > 100 µM
- IC50 (HT-29): > 100 µM
- IC50 (EBC-1): 32.5 ± 6.8 µM
- IC50 (U-87MG): > 100 µM

SMILES: Cn1c(N/N=C/c2ccc(OCc3cn(Cc4ccc(Cl)c(Cl)c4)nn3)cc2)nc2ccccc2c1=O [CM8]
- IC50 (A549): 34.5 ± 2.2 µM
- IC50 (HT-29): 47.8 ± 6.7 µM
- IC50 (EBC-1): 22.4 ± 6 µM
- IC50 (U-87MG): 51.1 ± 7.6 µM

SMILES: Cn1c(N/N=C/c2ccc(OCc3cn(Cc4ccc(Br)cc4)nn3)cc2)nc2ccccc2c1=O [CM9, (E)-2-(2-(4-((1-(4-bromobenzyl)-1H-1,2,3-triazol-4-yl)methoxy)benzylidene)hydrazinyl)-3-methylquinazolin-4(3H)-one]
- IC50 (FLT4 (VEGFR3)): 5.01 µM
- inhibition at 25 µM (AXL): 65%
- IC50 (MET kinase): 22.8 ± 3.9 µM
- inhibition at 25 µM (FGFR1): 66%
- inhibition at 10 µM (14) PDGFRA (PDGFRα) (h)): 5%
- inhibition at 10 µM (9) FLT4 (VEGFR3)): 86%
- inhibition at 10 µM (8) FLT3 (h); read-out: Kinase inhibition (%) ^a / 10 µM): 24%
- inhibition at 25 µM (8) FLT3 (h); [1]): 47%
- inhibition at 10 µM (16) RET(h)): -12%
- inhibition at 10 µM (10) KDR (VEGFR2) (h)): 0%
- inhibition at 10 µM (17) MST1R (RON) (h)): 5%
- inhibition at 10 µM (19) NTRK1 (TRKA) (h)): 4%
- inhibition at 10 µM (1) ABL1(h)): 14%
- inhibition at 10 µM (13) MET(h); [2]): 27%
- inhibition at 25 µM (13) MET(h); [1]): 58%
- inhibition at 10 µM (6) FGFR1(h)): 39%
- inhibition at 10 µM (7) FLT1 (VEGFR1) (h)): 22%
- inhibition at 10 µM (3) AXL(h)): 28%
- inhibition at 10 µM (18) ROS1): -25%
- inhibition at 10 µM (2) ALK(h)): 25%
- inhibition at 10 µM (11) MAPK3 (ERK1) (h)): -4%
- inhibition at 10 µM (MAPK1(m) (ERK2)): 3%
- inhibition at 10 µM (15) PDGFRB (PDGFRβ) (h); [2]): 23%
- inhibition at 25 µM (15) PDGFRB (PDGFRβ) (h); [1]): 10%
- inhibition at 10 µM (4) KIT (c-Kit) (h)): 0%
- inhibition at 10 µM (5) EGFR(h)): -2%
- inhibition at 25 µM (FLT1 (VEGFR1)): 82%
- inhibition at 25 µM (ALK): 51%
- IC50 (A549): 64.9 ± 2.9 µM
- IC50 (HT-29): 65.2 ± 15.4 µM
- IC50 (EBC-1): 8.6 ± 1.9 µM
- IC50 (U-87MG): 24.6 ± 2.6 µM
